What was measured:
[1] = tested on: système nerveux central de la souris; experiment: Catalepsy (prochlorpémazine-induced catatonia); format: in vivo; settings: catalepsy test
Text: (§1) Activité du sel acide de calcium de l'acide 2-oxo-1,5- pentane dioîque sur le système nerveux central de la souris.
Ce test a montré que le sel conforme à l'invention s'oppose à l'activité catatonique de la prochlorpémazine.

[2] = tested on: système nerveux central de la souris; experiment: Reduction of reserpine hypothermia; format: in vivo; settings: doses between 0,5 and 1g par kg per os
Text: as §1
5. Réduction de l'hypothermie réserpinique

[3] = Pharmacokinetic study with C14-labelled salt; format: in vivo; settings: rats, C14-labelled molecule
Text: Dans cette étude, on a administré à des rats le sel conforme à l'invention dont la molécule a été marquée au C^14 radioactif.

patients = experiment: Clinical study: memory disorders, neurotic (anxiophobic) and psychasthenic states, versus placebo; format: in vivo, homme; settings: sixty patients, 4g daily in two doses versus placebo
Text: 2. Correction des troubles de la mémoire, des états névrotiques (anxiophobiques), et des états psychasténiques

rats = experiment: 30-day daily treatment toxicity; format: in vivo; settings: daily treatment 30 days, doses up to 1g par kg et par jour
Text: Un groupe de rats a été soumis à un traitement quotidien par le sel acide de calcium de l'acide 2-oxo-1,5- pentane dioique pendant une durée de 30 jours.

[4] = tested on: système nerveux central de la souris; experiment: Rotarod test (rotating cylinder) after chlorpromazine; format: in vivo; settings: from the dose of 0,5g par kg
Text: as §1
3. Test du "rotarod" (cylindre tournant)
Dans ce test, la souris tourne sur un cylindre animé d'un mouvement rotatif, perd l'équilibre et tombe après administration de chlorpromazine (CPZ).

[5] = tested on: système nerveux central de la souris; experiment: Reduction of barbiturate narcosis; format: in vivo
Text: as §1
4. Réduction de la narcose barbiturique
Les résultats de ce test se sont avérés positifs, chez la souris.

[6] = tested on: système nerveux central de la souris; experiment: Reduction of reserpine ptosis; format: in vivo; settings: souris, 0,5g par kg à 1g par kg per os, 1 hour after administration
Text: as §1
1. Réduction du ptosis réserpinique

[7] = tested on: système nerveux central de la souris; experiment: Hole-board test; format: in vivo
Text: as §1
6. Test de la planche à trous
Sur une planche percée de trous, la souris, parcourant la surface, explore les divers trous rencontrés.

[8] = tested on: système nerveux central de la souris; experiment: Motor activity; format: in vivo
Text: as §1
Ce test a montré que l'adminitration à des souris du sel conforme à l'invention, provoque une augmentation de leur activité motrice.

patient = experiment: Clinical test: corrective effects on hypoxia (chamber, 12,5% O2); format: in vivo, homme; settings: acute dose 12g per os, hypoxia at 12,5% O2
Text: 1. Effets correctifs du sel acide de calcium de l'acide 2-oxo 1,5-pentane dioïgue sur l'hypoxie
Le test est réalisé sur le patient après le passage de celui-ci en caisson sous une hypoxie à 12,5% d'O2.

[9] = tested on: système nerveux central de la souris; experiment: Antagonism of the muscle-relaxant action of chlorpromazine (CPZ); format: in vivo
Text: as §1
2. Antagonisme de l'action myorelaxante de la Chlorpromazine (CPZ)
La chlorpromazine induit une myorelaxation chez la souris. On constate une réduction de 37,5% pour une dose de 1g par kg et une réduction de 62,5% pour une dose de 2g par kg.

[10] = Solubility in water at 20°C; format: physicochemical; settings: lithium salt
[11] = Tests on the acid lithium salt (pharmacological and therapeutic properties); settings: compared with the calcium salt

Substance | activité catatonique de la prochlorpémazine [1] | réduction de l'hypothermie réserpinique [2] | passage à travers la barrière hématoencéphalique [3] | principal métabolite d'élimination [3] | conversion au niveau cérébral ([3]; in the brain) | efficacité à l'égard des troubles de la mémoire, états névrotiques (anxiophobiques) et états psychasténiques (patients) | anomalie dans les constantes biologiques, hématologiques et les examens histologiques de différents viscères (rats) | antagonisme du CPZ (rotarod) [4] | réduction de la narcose barbiturique [5] | ptosis réserpinique [6] | exploration (planche à trous) sous méprobamate ([7]; after a single treatment, méprobamate-induced decrease of exploration) | activité exploratrice (planche à trous) ([7]; after three days of pretreatment, versus control animals) | activité motrice [8] | effet correctif sur l'hypoxie (patient) | réduction (myorelaxation induite par la chlorpromazine) ([9]; dose 1g par kg) | réduction (myorelaxation induite par la chlorpromazine) ([9]; dose 2g par kg) | solubilité dans l'eau à 20°C [10] | propriétés pharmacologiques et thérapeutiques [11]
sel de calcium acide de l'acide 2-oxo-1,5- pentane dioïque | s'oppose | résultats positifs | passage de la molécule à travers la barrière hématoencéphalique | acide glutamique | conversion de celle-ci en acide gamma-aminobutyrique (GABA) | excellente efficacité | Aucune anomalie | antagonisme du CPZ | positifs | réduit de façon significative | inhibition de la diminution d'exploration | augmentation notable | augmentation | activateur efficace capable de contrebalancer l'effet d'une hypoxie | 37,5% | 62,5% |  | 
sel acide de lithium de l'acide 2-oxo-1,5- pentane dioïque [sel de lithium acide] |  |  |  |  |  |  |  |  |  |  |  |  |  |  |  |  | 5,5 % en poids | comparables à celles du sel de calcium

— patent EP0073711A1, “Salts of 2-oxopentane-1,5-dicarboxylic acid, their preparation and pharmaceutical preparations containing these salts” (S.A. D[…] LEBAS (Société Anonyme), priority 1981, dated 1983)
